From patent US20240317791A1 (priority 2021, published 2024)
≈ marks a conversion by molar mass, not a printed value. Where two headings read alike, the source gives them in different places.

Columns and labels:
Sporothrix schenkii = details: 1 strain of Sporothrix schenkii; cited from earlier work
Rhizopus oryzae [1] = details: 4 strains of Rhizopus oryzae; cited from earlier work
Microsporum spp. = details: 2 strains of Microsporum spp; cited from earlier work
Candida auris = assay: MIC determination against clinical isolates of Candida auris (CLSI M27, 4th edition); type: cell-based; details: Candidozyma auris, read-out: MIC values
Excerpt: (§1) MIC: Minimum Inhibitory Concentration (MIC) is defined as the lowest concentration of an antimicrobial ingredient that is bacteriostatic.
(§2) Testing has been performed in triplicates for each isolate.

[2] = rats, single intravenous administration; amcipatricin diascorbate 1.25 mg/kg, amphotericin B 1 mg/kg; cited from earlier work
Rhizopus oryzae [3] = assay: MIC determination against clinical isolates of the order Mucorales (CLSI M27, 4th edition); type: cell-based; details: Rhizopus arrhizus, strain 2086, clinical strain
Excerpt: as §1, §2

Rhizopus microsporus = assay: as above; type: cell-based
Excerpt: as §1, §2

Penicillium spp. = details: 5 strains of Penicillium spp.; cited from earlier work
Aspergillus spp. = details: 13 strains of Aspergillus spp.; cited from earlier work
Mucor circinelloides = assay: MIC determination against ATCC and clinical isolates of the order Mucorales (CLSI M27, 4th edition); type: cell-based
Excerpt: as §1, §2

Trichophyton spp. = details: 7 strains of Trichophyton spp.; cited from earlier work
[4] = strain I.2 (No 2), clade I/India
[5] = strain I.3 (No 3), clade I/India
[6] = strain I.4 (No 4), clade I/India
[7] = strain II.1 (No 5), clade II/Japan
[8] = strain II.2 (No 1), clade II/India
[9] = strain III.7 (No 12), clade III/Switzerland
[10] = strain III.8 (No 13), clade III/Israel
[11] = strain III.9 (No 14), clade III/Israel
[12] = strain IV.1 (No 15), clade IV/Colombia
[13] = strain IV.10 (No 7), clade IV/Israel
[14] = strain IV.11 (No 8), clade IV/Israel
[15] = strain IV.12 (No 9), clade IV/Israel
[16] = strain IV.13 (No 10), clade IV/Israel
[17] = strain IV.14 (No 11), clade IV/Israel
[18] = strain IV.2 (No 16), clade IV/Colombia
[19] = strain IV.3 (No 17), clade IV/Colombia
[20] = strain IV.4 (No 18), clade IV/Colombia
[21] = strain IV.5 (No 19), clade IV/Colombia
[22] = strain IV.6 (No 20), clade IV/Colombia
[23] = strain IV.7 (No 21), clade IV/Colombia
[24] = strain IV.8 (No 22), clade IV/Colombia
[25] = strain IV.9 (No 6), clade IV/Israel

C[C@@H]1[C@H](O)[C@@H](C)/C=C/C=C/C=C/C=C/C=C/C=C/C=C/[C@H](O[C@@H]2O[C@H](C)[C@@H](O)[C@H](N)[C@@H]2O)C[C@@H]2O[C@](O)(C[C@@H](O)C[C@@H](O)[C@H](O)CC[C@@H](O)C[C@@H](O)CC(=O)O[C@H]1C)C[C@H](O)[C@H]2C(=O)O [Amphotericin B]
MFC (Sporothrix schenkii): 19.2 µg/mL (≈ 20.8 µM) | geometric means of the minimum fungicidal concentration values compared to amcipatricin diascorbate (Rhizopus oryzae [1]): lower | geometric means of the minimum fungicidal concentration values compared to amcipatricin diascorbate (Microsporum spp.): lower | MIC (Candida auris; [4]): 1 µg/mL (≈ 1.08 µM) | MIC (Candida auris; [5]): 1 µg/mL (≈ 1.08 µM) | MIC (Candida auris; [6]): 1 µg/mL (≈ 1.08 µM) | MIC (Candida auris; [7]): 0.5 µg/mL (≈ 0.541 µM) | MIC (Candida auris; [8]): 0.25 µg/mL (≈ 0.271 µM) | MIC (Candida auris; [9]): 0.5 µg/mL (≈ 0.541 µM) | MIC (Candida auris; [10]): 0.5 µg/mL (≈ 0.541 µM) | MIC (Candida auris; [11]): 1 µg/mL (≈ 1.08 µM) | MIC (Candida auris; [12]): 2 µg/mL (≈ 2.16 µM) | MIC (Candida auris; [13]): 0.25 µg/mL (≈ 0.271 µM) | MIC (Candida auris; [14]): 0.5 µg/mL (≈ 0.541 µM) | MIC (Candida auris; [15]): 0.5 µg/mL (≈ 0.541 µM) | MIC (Candida auris; [16]): 1 µg/mL (≈ 1.08 µM) | MIC (Candida auris; [17]): 0.5 µg/mL (≈ 0.541 µM) | MIC (Candida auris; [18]): 2 µg/mL (≈ 2.16 µM) | MIC (Candida auris; [19]): 2 µg/mL (≈ 2.16 µM) | MIC (Candida auris; [20]): 1 µg/mL (≈ 1.08 µM) | MIC (Candida auris; [21]): 1 µg/mL (≈ 1.08 µM) | MIC (Candida auris; [22]): 1 µg/mL (≈ 1.08 µM) | MIC (Candida auris; [23]): 1 µg/mL (≈ 1.08 µM) | MIC (Candida auris; [24]): 1 µg/mL (≈ 1.08 µM) | MIC (Candida auris; [25]): 0.5 µg/mL (≈ 0.541 µM) | area under the curve to infinity (AUC(0-∞)) [2]: 10330 ng·h/mL | elimination half-lives [2]: 18.15 h | MIC (Rhizopus oryzae [3]): 1 µg/mL (≈ 1.08 µM) | MIC (Rhizopus microsporus; strain 3315, clinical strain): 0.25 µg/mL (≈ 0.271 µM) | MIC (Rhizopus microsporus; strain 3435, clinical strain): 0.5 µg/mL (≈ 0.541 µM) | geometric means of the minimum fungicidal concentrations (Penicillium spp.): about 12 μg/mL | geometric means of the minimum fungicidal concentrations (Aspergillus spp.): 12.53 µg/mL | MIC (Mucor circinelloides; ATCC24905, strain ATCC 24905, ATCC strain): 0.25 µg/mL (≈ 0.271 µM) | MIC (Mucor circinelloides; strain 2109, clinical strain): 0.5 µg/mL (≈ 0.541 µM) | MIC (Mucor circinelloides; strain 2707, clinical strain): 0.25 µg/mL (≈ 0.271 µM) | MIC (Mucor circinelloides; strain 4280, clinical strain): 1 µg/mL (≈ 1.08 µM) | geometric means of the minimum fungicidal concentration values compared to amcipatricin diascorbate (Trichophyton spp.): lower

OC(Cn1cncn1)(Cn1cncn1)c1ccc(F)cc1F [Fluconazole]
MIC (Candida auris; [4]): 1020 µg/mL (≈ 3340 µM) | MIC (Candida auris; [5]): 1020 µg/mL (≈ 3340 µM) | MIC (Candida auris; [6]): 1020 µg/mL (≈ 3340 µM) | MIC (Candida auris; [7]): 4 µg/mL (≈ 13.1 µM) | MIC (Candida auris; [8]): 32 µg/mL (≈ 104 µM) | MIC (Candida auris; [9]): 1020 µg/mL (≈ 3340 µM) | MIC (Candida auris; [10]): 512 µg/mL (≈ 1670 µM) | MIC (Candida auris; [11]): 1020 µg/mL (≈ 3340 µM) | MIC (Candida auris; [12]): 4 µg/mL (≈ 13.1 µM) | MIC (Candida auris; [13]): 32 µg/mL (≈ 104 µM) | MIC (Candida auris; [14]): 32 µg/mL (≈ 104 µM) | MIC (Candida auris; [15]): 32 µg/mL (≈ 104 µM) | MIC (Candida auris; [16]): 32 µg/mL (≈ 104 µM) | MIC (Candida auris; [17]): 32 µg/mL (≈ 104 µM) | MIC (Candida auris; [18]): 128 µg/mL (≈ 418 µM) | MIC (Candida auris; [19]): 128 µg/mL (≈ 418 µM) | MIC (Candida auris; [20]): 128 µg/mL (≈ 418 µM) | MIC (Candida auris; [21]): 128 µg/mL (≈ 418 µM) | MIC (Candida auris; [22]): 128 µg/mL (≈ 418 µM) | MIC (Candida auris; [23]): 1020 µg/mL (≈ 3340 µM) | MIC (Candida auris; [24]): 1020 µg/mL (≈ 3340 µM) | MIC (Candida auris; [25]): 16 µg/mL (≈ 52.2 µM)
